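How tested: cells in 96-well plates exposed to compound for 48 hours at five concentrations. GI50 marks 50% less growth.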 Active and inactive are the calls of the source. No stated cut-off is given here; in the data, active = GI50 up to about 1.1 µM and inactive = higher.
Key:
Experiment in all cases: growth of human tumour cells (NCI), 48 h
[1] = test system: ACHN
[2] = test system: CAKI-1
[3] = test system: COLO 205
[4] = test system: DU-145
[5] = test system: HOP-92
[6] = test system: LOX IMVI
[7] = test system: M14
[8] = test system: MOLT-4
[9] = test system: Malme-3M
[10] = test system: OVCAR-4
[11] = test system: OVCAR-8
[12] = test system: PC-3
[13] = test system: SF-268
[14] = test system: SK-MEL-5
[15] = test system: SW-620
[16] = test system: U-251
[17] = test system: UACC-62
[18] = test system: NCI-H522
[19] = test system: SK-MEL-2
[20] = test system: RXF 393

| SMILES | GI50 [1] | GI50 [2] | GI50 [3] | GI50 [4] | GI50 [5] | GI50 [6] | GI50 [7] | GI50 [8] | GI50 [9] | GI50 [10] | GI50 [11] | GI50 [12] | GI50 [13] | GI50 [14] | GI50 [15] | GI50 [16] | GI50 [17] | GI50 [18] | GI50 [19] | GI50 [20] |
| --- | --- | --- | --- | --- | --- | --- | --- | --- | --- | --- | --- | --- | --- | --- | --- | --- | --- | --- | --- | --- |
| Nc1ccccc1OCc1cc(=O)c(OCc2ccccc2)co1 | 8.99 µM (inactive) | 8.65 µM (inactive) | 12.6 µM (inactive) | 47.8 µM (inactive) | 0.202 µM (active) | 27.7 µM (inactive) | 17.7 µM (inactive) | > 100 µM (inactive) | 34.6 µM (inactive) | 62.1 µM (inactive) | > 100 µM (inactive) | 34.4 µM (inactive) | 15.9 µM (inactive) | 18.8 µM (inactive) | 80.7 µM (inactive) | 28.4 µM (inactive) | 0.469 µM (active) |  |  |  |
| COc1ccc(C2=NNC(=O)c3ccccc3N2c2nc(-c3cccs3)nc3cc(OC)c(OC)cc23)cc1 | 3.07 µM (inactive) | 14.6 µM (inactive) | 2.86 µM (inactive) | 6.49 µM (inactive) | 2.86 µM (inactive) |  | 4.29 µM (inactive) | 16.6 µM (inactive) | 2.6 µM (inactive) | 1.8 µM (inactive) | 5.05 µM (inactive) | 4.68 µM (inactive) | 6.46 µM (inactive) | 3.72 µM (inactive) | 4.86 µM (inactive) | 3.3 µM (inactive) | 2.34 µM (inactive) | 5.98 µM (inactive) | 5.27 µM (inactive) |  |
| CN(C=O)/C=C/c1cc(O)ccc1O | 16.1 µM (inactive) | 20.3 µM (inactive) | 21.3 µM (inactive) | 33.4 µM (inactive) | 19.9 µM (inactive) | 23.2 µM (inactive) | 41.3 µM (inactive) | 10.8 µM (inactive) | 39.4 µM (inactive) | 17.6 µM (inactive) | 30.3 µM (inactive) |  | 25.8 µM (inactive) | 42 µM (inactive) | 12.8 µM (inactive) | 39.6 µM (inactive) | 31.3 µM (inactive) | 4.17 µM (inactive) | 35.6 µM (inactive) | 18 µM (inactive) |
| C/C(=N/NC(=S)Nc1cccc(Cl)c1)c1cccc(/C(C)=N\NC(=S)Nc2cccc(Cl)c2)n1 | 0.813 µM (active) | 2.86 µM (inactive) | 1.35 µM (inactive) |  | 3.65 µM (inactive) | 1.84 µM (inactive) | 1.62 µM (inactive) | 2.69 µM (inactive) | 1.43 µM (inactive) | 5.14 µM (inactive) | 0.902 µM (active) | 3.46 µM (inactive) |  | 2.03 µM (inactive) | 3.25 µM (inactive) | 3.13 µM (inactive) | 2.1 µM (inactive) | 3.03 µM (inactive) | 3.73 µM (inactive) | 2.38 µM (inactive) |
| C=C1C(=O)OC2/C=C(/C)C3CC(O)C(C)(CC(OC(=O)/C(C)=C/C)C12)O3 (stereo not drawn) | 2.49 µM (inactive) | 1.97 µM (inactive) | 1.52 µM (inactive) |  | 2.98 µM (inactive) | 1.76 µM (inactive) | 2.91 µM (inactive) | 1.91 µM (inactive) | 2.28 µM (inactive) | 7.55 µM (inactive) | 1.83 µM (inactive) |  | 4.2 µM (inactive) | 4.68 µM (inactive) | 1.65 µM (inactive) | 9.04 µM (inactive) | 2.03 µM (inactive) | 1.6 µM (inactive) | 2.49 µM (inactive) | 1.52 µM (inactive) |
| COC(=O)c1cccc2cccc(C(=O)Nc3ccc(C)cc3C)c12 | 67.1 µM (inactive) | > 100 µM (inactive) | 69.5 µM (inactive) |  | 61.8 µM (inactive) | > 100 µM (inactive) | > 100 µM (inactive) | 48.5 µM (inactive) | > 100 µM (inactive) | 93.8 µM (inactive) | > 100 µM (inactive) |  | > 100 µM (inactive) | > 100 µM (inactive) | > 100 µM (inactive) | > 100 µM (inactive) | > 100 µM (inactive) | 70.1 µM (inactive) | > 100 µM (inactive) | 39.3 µM (inactive) |
| CC(=O)C1(O)CCC2(O)C3(O)CC=C4CC(O)CCC4(C)C3CC(OC(=O)c3ccc(O)cc3)C12C (stereo not drawn) | > 100 µM (inactive) | > 100 µM (inactive) | > 100 µM (inactive) | > 100 µM (inactive) | > 100 µM (inactive) | > 100 µM (inactive) | > 100 µM (inactive) | 46.2 µM (inactive) |  | > 100 µM (inactive) | > 100 µM (inactive) | > 100 µM (inactive) | > 100 µM (inactive) | > 100 µM (inactive) | > 100 µM (inactive) | > 100 µM (inactive) | 75.2 µM (inactive) | > 100 µM (inactive) | > 100 µM (inactive) |  |
| C[N+]1(C)CCC(C#N)(c2ccccc2)CC1 | > 100 µM (inactive) | > 100 µM (inactive) | > 100 µM (inactive) | > 100 µM (inactive) | > 100 µM (inactive) |  | > 100 µM (inactive) | > 100 µM (inactive) | > 100 µM (inactive) | > 100 µM (inactive) | > 100 µM (inactive) |  | > 100 µM (inactive) | > 100 µM (inactive) | > 100 µM (inactive) | > 100 µM (inactive) |  |  |  | > 100 µM (inactive) |
| CC(=O)Nc1ccccc1Sc1ccccc1 | > 100 µM (inactive) | 69.8 µM (inactive) | > 100 µM (inactive) |  | 69.8 µM (inactive) | > 100 µM (inactive) | > 100 µM (inactive) | > 100 µM (inactive) | > 100 µM (inactive) | > 100 µM (inactive) | > 100 µM (inactive) |  | 72.9 µM (inactive) | > 100 µM (inactive) | > 100 µM (inactive) | > 100 µM (inactive) | > 100 µM (inactive) | 36.6 µM (inactive) | > 100 µM (inactive) | 74.5 µM (inactive) |
| CC(C)(C)OC(=O)c1cccnc1/C=N/O | 24 µM (inactive) | > 100 µM (inactive) | > 100 µM (inactive) |  | > 100 µM (inactive) | > 100 µM (inactive) | > 100 µM (inactive) | 68.2 µM (inactive) | > 100 µM (inactive) | > 100 µM (inactive) | > 100 µM (inactive) |  | > 100 µM (inactive) | > 100 µM (inactive) | 58.6 µM (inactive) | > 100 µM (inactive) | > 100 µM (inactive) | > 100 µM (inactive) | > 100 µM (inactive) | > 100 µM (inactive) |
| N[C@H]1CCC[C@@H](O)C1O (stereo partly drawn) | > 100 µM (inactive) | > 100 µM (inactive) |  | > 100 µM (inactive) |  | > 100 µM (inactive) | > 100 µM (inactive) |  |  |  | > 100 µM (inactive) | > 100 µM (inactive) | > 100 µM (inactive) | > 100 µM (inactive) | > 100 µM (inactive) | > 100 µM (inactive) | > 100 µM (inactive) |  | > 100 µM (inactive) |  |
| O=C(Nc1nc2ccccc2n1Cc1ccccc1)NC12CC3CC(CC(C3)C1)C2 | 44.7 µM (inactive) | 88.9 µM (inactive) | 48.5 µM (inactive) |  | 23 µM (inactive) | 40.3 µM (inactive) | 92.5 µM (inactive) | > 100 µM (inactive) | 39.6 µM (inactive) | 20.7 µM (inactive) | > 100 µM (inactive) |  | 14.4 µM (inactive) | 54.6 µM (inactive) | > 100 µM (inactive) | 39 µM (inactive) | 41.9 µM (inactive) | 44.7 µM (inactive) | > 100 µM (inactive) | 19.5 µM (inactive) |
